According to US5847123A, “Imide derivatives for inhibiting the production of interleukin-1β and the production of tumor necrosis factor α” (Nisshin Flour Milling Co., Ltd., priority 1996, dated 1998):

Columns and labels:
IL-1β production = test: Inhibitory activity of the IL-1β production in PMA/polyinosic acid-stimulated THP-1 cells (enzyme immunoassay); assay type: cell-based, human (THP-1 cells); details: Homo sapiens, PMA 2 μg/ml and polyinosic acid 200 μg/ml, 22 hours
Procedure: (§1) Determination for the inhibitory activity of the IL-1β production and the inhibitory activity of the TNFα production
(§2) The THP-1 cells, which is the monocyte-established cell line derived from human peripheral blood (ATCC TIB202), were incubated at 37° C. in a 5% CO2 incubator in RPMI 1640 medium (available from Bio-Whittaker Co., Ltd.) containing 10% (v/v) of fetal bovine serum, 2 mM of glutamine, 50 μM of 2-mercaptoethanol, 60 μg/ml of penicillin and 100 μg/ml of streptomycin. The THP-1 cells maintained as described above were centrifuged at 1200 rpm at room temperature for 3 minutes to recover the cells in a 50 ml conical tube. The cell pellets thus obtained were resuspended in RPMI 1640 medium containing 2% (v/v) of fetal bovine serum and the glutamine, 2-mercaptoethanol and antibiotics as described above so as to provide a final THP-1 cell concentration of 2×10^6 cells/ml.
(§3) The cell resuspension having the above concentration was dispensed in 0.5 ml portions to a 24-well plate for cell culture. Then, 2.5 μl each of the solutions of the present imide derivatives dissolved in DMSO was added to each well. The plate was then incubated at 37° C. in a 5% CO2 incubator for one hour. Then, 12-o-tetradecanoylphorbol-13-acetate (hereinafter referred to as PMA) and polyinosic acid were added to each well so as to provide the final concentrations of 2 μg/ml and 200 μg/ml, respectively. The plate was further incubated at 37° C. in a 5% CO2 incubator for 22 hours and the IL-1β and TNFα produced in the cultured broth were assayed. The assay for IL-1β was carried out by means of the enzyme immunoassay kit available from Cayman Chemical Co., Ltd., while the assay of TNFα was done by means of the ELIZA kit available from Genzyme Co., Ltd.
(§4) The inhibitory activity was expressed in terms of IC50 values, wherein the produced amount of IL-1β and the produced amount of TNFα when no imide derivative was added are defined as 100, respectively, and the concentration of each imide derivative of the present invention to inhibit the IL-1β production and TNFα production is defined as IC50, respectively.

TNFα production [1] = test: Inhibitory activity of the TNFα production in PMA/polyinosic acid-stimulated THP-1 cells (ELIZA kit); assay type: cell-based, human (THP-1 cells); details: Homo sapiens, PMA 2 μg/ml and polyinosic acid 200 μg/ml, 22 hours
Procedure: as §1, §2, §3, §4

[2] = Determination for cytotoxicity in THP-1 cells (Alamar Blue); assay type: cell-based; details: human, 24 hours incubation, read-out: LD50 (lethal dose for 50% in the THP-1 cells)
Procedure: Determination for Cytotoxicity The THP-1 cells, which is the monocyte-established cell line derived from human peripheral blood (ATCC TIB202), were incubated at 37° C. in a 5% CO2 incubator in RPMI 1640 medium (available from Bio-Whittaker Co., Ltd.) containing 10% (v/v) of fetal bovine serum, 2 mM of glutamine, 50 μM of 2-mercaptoethanol, 60 μg/ml of penicillin and 100 μg/ml of streptomycin. The THP-1 cells maintained as described above were centrifuged at 1200 rpm at room temperature for 3 minutes to recover the cells in a 50 ml conical tube. The cell pellets thus obtained were suspended in RPMI 1640 medium containing 2% (v/v) of fetal bovine serum, 2 mM of glutamine, 50 μM of 2-mercaptoethanol, 60 μg/ml of penicillin and 100 μg/ml of streptomycin so as to provide the final cell concentration of 1×10^6 cells/ml. The cell suspension obtained as above was dispensed in 1 ml portions to a 24-well plate for cell culture. Then, 5 μl each of the solutions of the present imide derivatives dissolved in DMSO was added to each well. The plate was then incubated at 37° C. in a 5% CO2 incubator for 24 hours. After incubation, 100 μl of Alamar Blue (available from Biosource Co., Ltd.) was added to each well and then the plate was further incubated at 37° C. in a 5% CO2 incubator for 3 hours. Thereafter, a supernatant was recovered and determined for a difference in absorbances at 570 nm and 600 nm. Cytotoxicity was then evaluated in accordance with the survival rates determined from the differences in absorbances. More specifically, the lethal dose for 50% (LD50) in the THP-1 cells were calculated.

TNFα production [3] = test: Inhibitory activity of the TNFα production in LPS-treated mice (blood TNFα level); assay type: in vivo, DBA/2 strain mice; details: for Inhibitory rate (%) of TNFα production: 10 mg/kg i.p. twice (before and after 30 minutes from LPS 5.6 mg/kg i.v.), blood TNFα after 2 hours; for inhibitory activity on the TNFα production in mice (in words): 10 mg/kg i.p., LPS-treated DBA/2 mice
Procedure: Determination for the inhibitory activity of the TNFα production To the DBA/2 strain mice previously given with LPS 5.6 mg/kg, i.v. were intraperitoneally administered twice before and after 30 minutes from the LPS administration the present imide derivatives selected from Compound 1, Compound 3, Compound 7, Compound 8, Compound 9 and Compound 26. After 2 hours from the LPD administration, the blood TNFα level was determined to investigate the inhibitory activity of the present imide derivatives on the TNFα production. More specifically, the blood TNFα level was determined when the present imide derivative was given at a dose of 10 mg/kg to calculate the inhibitory rate of the TNFα production.

SMILES | IC50 (IL-1β production) [µM] | IC50 (TNFα production [1]) [µM] | CC50 at 24 h [2] [µM] | Inhibitory rate (%) of TNFα production (TNFα production [3]) [%] | inhibitory activity on the TNFα production in mice (in words) (TNFα production [3])
CC(=O)NC(=O)C#Cc1ccccc1 [Compound 14] | 4.4 | 1.8 |  |  | 
O=C(C#Cc1ccccc1)N1CCNC1=O [Compound 11] | 1.8 | 0.5 |  |  | 
O=C(C#Cc1ccc(F)cc1)N1CCOC1=O [Compound 6] | 2.4 | 1.7 | > 100 |  | 
O=C(C#Cc1ccc(F)cc1)N1CCCC1=O [Compound 3] | 3.8 | 1.3 | > 100 | 37 | significant inhibitory activity
Cc1ccccc1N(C(=O)C#Cc1ccccc1)C(=O)CCc1ccccc1 [Compound 20] | 1.3 | 1.9 |  |  | 
O=C(C#Cc1ccccc1)N1CCOC1=O [Compound 7] | 1.1 | 1.2 | > 200 | 22 | significant inhibitory activity
O=C(C#Cc1ccc(Cl)cc1)N1CCCC1=O [Compound 2] | 5.5 | 1.6 |  |  | 
CCN(C(=O)C#Cc1ccccc1)C(=O)c1cccs1 [Compound 25] | > 30 | 4.8 |  |  | 
O=C(C#Cc1ccccc1)N1CCCCCC1=O [Compound 8] | 6 | 2.1 | > 200 | 31 | significant inhibitory activity
O=C(C#Cc1ccccc1)N1CCCC1=O [Compound 1] | 1.4 | 1 | 70 | 22 | significant inhibitory activity
CC(=O)N(C(=O)C#Cc1ccccc1)c1ccccn1 [Compound 22] | 12 | 14 |  |  | 
CC1CCC(=O)N1C(=O)C#Cc1ccccc1 (stereo not shown) [Compound 9] | 2.8 | 0.9 | 110 | 29 | significant inhibitory activity
COC(=O)C1CCC(=O)N1C(=O)C#Cc1ccccc1 (racemic) [Compound 21] | 7 | 0.6 |  |  | 
CC(=O)N(C(=O)C#Cc1ccccc1)c1ccncc1 [Compound 26] | 8.8 | 1.7 |  | 37 | significant inhibitory activity

Second part, led by results:

IC50 (IL-1β production) [µM] | IC50 (TNFα production [1]) [µM] | SMILES | CC50 at 24 h [2] [µM] | Inhibitory rate (%) of TNFα production (TNFα production [3]) [%] | inhibitory activity on the TNFα production in mice (in words) (TNFα production [3])
3.1 | 1.8 | COc1ccccc1CN(C(C)=O)C(=O)C#Cc1ccccc1 [Compound 17] |  |  | 
5.7 | 4.4 | CCN(C(C)=O)C(=O)C#Cc1ccccc1 [Compound 18] |  |  | 
6.7 | 0.5 | O=C(C#Cc1ccccc1)N1CCN(C(=O)C#Cc2ccccc2)C1=O [Compound 10] |  |  | 
9.6 | 5.4 | CCN(C(=O)C#Cc1ccccc1)C(=O)c1ccccc1 [Compound 12] |  |  | 
7 | 1.7 | N#Cc1ccc(C#CC(=O)N2CCCC2=O)cc1 [Compound 4] |  |  | 
8.8 | 1.7 | CC(=O)N(CCc1ccccc1)C(=O)C#Cc1ccccc1 [Compound 28] |  |  | 
15 | 15 | O=C(C#Cc1ccccc1)N(Cc1ccc(F)cc1)C(=O)c1ccccc1 [Compound 13] |  |  | 
2.6 | 2.1 | N#Cc1ccc(C#CC(=O)N2CCOC2=O)cc1 [Compound 5] |  |  | 
6.3 | 3.7 | CC(=O)N(CCN(C)C)C(=O)C#Cc1ccccc1 [Compound 30] |  |  | 
14 | 3 | O=C(C#Cc1ccccc1)N(C(=O)c1ccccc1)c1ccc(F)cc1F [Compound 27] |  |  | 
> 30 | > 30 | CCN(C(=O)C#Cc1ccccc1)C(=O)COC [Compound 29] |  |  | 
6.3 | 1.7 | CC(=O)N(C(=O)C#Cc1ccccc1)c1ccc2c(c1)OCO2 [Compound 15] |  |  | 
10 | 4.4 | CC(=O)N(Cc1ccco1)C(=O)C#Cc1ccccc1 [Compound 24] |  |  | 
13 | 14 | CCCCC(=O)N(CCCC)C(=O)C#Cc1ccccc1 [Compound 16] |  |  | 
2 | 1.3 | CCN(C(=O)C#Cc1ccccc1)C(=O)Cc1ccccc1Cl [Compound 19] |  |  | 
